# Test results taken from US9982011B2, “Legumain activated doxorubicin derivative as well as preparation method and application thereof” (priority 2012, dated 2018).
# “Also recorded” adds a separate entry of the source. Counter-ions that a name gives are not always drawn. Starred links: 1 amine or outer side, 2 acyl side, 3 side chain; linkers in the order of their positions; H or OH if unused. Residues, ends and D or L forms follow the SMILES beside them. *: point of attachment. Doxorubicin(3'-N) = COc1cccc2c1C(=O)c1c(O)c3c(c(O)c1C2=O)C[C@@](O)(C(=O)CO)C[C@@H]3O[C@H]1C[C@H](N*)[C@H](O)[C@H](C)O1; Suc = O=C(CCC(=O)[*:2])[*:1]
# Assays:
# [1] = Metabolic half-life in mice blood
# [2] = target: Cathepsin B (Homo sapiens, UniProt P07858); assay: In vitro binding to cathepsin absorbed on a 96-well plate (fluorescence of bound drug); settings: FIG. 1
# Description: The R6 group allows the drug to be able to target cathepsin (Cathepsin B) in the tumor microenvironment and inhibit the activity of cathepsin necessary for tumor growth, development and metastasis. […] The R6 group also allows the drug to have an additional function of targeting tumor, thus the drug has two targeted effects.
# The test method was described as follows. Cathepsin was absorbed on a 96-well plate and blocked with BSA. Succinyl-AANL-DOX (SEQ ID NO: 2), S1 and a mixture of S1 and E-64 (an inhibitor for specific binding of cathepsin) were added to allow them to bind to the cathepsin on the 96-well plate. The unbound drugs were removed and the fluorescence of the bound drug was detected.
# [3] = target: serum albumin (Mus musculus, UniProt P07724); settings: blood taken 10 minutes after intravenous tail injection
# Description: Bloods were taken after 10 minutes and centrifuged to obtain serum. The proteins in the serum were precipitated by 70% ethanol.
# [4] = system: BALB/C mice; assay: Maximum tolerated dose (MTD) / acute toxicity of a single injection in mice
# Description: (§1) Test purpose: to investigate the acute toxicity of the subject new drug formulation via MTD assay by intravenous administration to mice.
# (§2) Test drug: S1 and S2 injections, diluted to the corresponding concentrations with physiological saline when tested.
# (§3) Animal: the first class BALB/C mice, weighing 19-21 g and all mice being female.
# (§4) Method and results: 36 female BALB/C mice weighing 19-21 g were randomly divided into 6 groups according to their body weights, with 6 mice in each group. […] Control tests were performed by injecting 0.2 ml physiological saline or doxorubicin hydrochloride. […] Blood samples were taken on the 3, 5 and 14 days for counting the whole blood cells. Animals were anatomized on day 14 to take the heart, liver, kidney, lung, spleen, and pancreas for HE staining.
# (§5) The MTD for intravenous administration of a test drug is an important reference index for drug toxicity.
# [5] = as above; settings: female, BALB/C, mouse, in vivo
# Description: as §1, §2, §3, §4, §5
# [6] = system: 4T1 cells; assay: Efficacy in 4T1 tumor metastasis (lung) model in BALB/C mice; format: in vivo
# Description: Test purpose: to investigate the anti-tumor efficacy of S1 and S2 in a tumor metastasis treatment model from BALB/C mice.
# Test drug: S1 and S2 injections, and doxorubicin hydrochloride injection, diluted to corresponding concentrations with physiological saline when testing.
# 1. Animal: BALB/C mice of 6-8 weeks old, all female.
# 1) 4T1 cells were purchased from American type culture collection (ATCC) and identified according the specification provided by ATCC. Cells were cultivated in DMEM culture medium containing 10% fetal bovine serum at 37° C. and 5% CO2. The cells were passaged for every three days and cells within the 15th passage were used.
# 2) Production of tumor metastasis. 10^6 […] were subcutaneously injected to the back of the BALB/C mice. Mice were randomly grouped after the tumor grew to about 1.5 cm. The subcutaneous tumor was removed by surgery and drug treatment began. Mice were killed after anesthesia on day 27. The whole lung was taken out and put into Bouin's solution for staining. The number of the tumor metastasized to lung was counted with anatomical microscope.
# (§6) 3) Course of treatment. According to the clinical application of S1 and S2, drugs were intraperitoneally injected. A dose of 10 μmol/kg (<1/10 MTD) was used for the S1 treatment group, 10 μmol/kg (<1/10 MTD) for the S2 treatment group, and 3 μmol/kg (>1/2 MTD) for doxorubicin hydrochloride. The control group was administered with physiological saline. The drugs were administered daily for 8 days.
# [7] = system: MDA-MB231 cells; assay: Efficacy in MDA-MB231 tumor model in nude mice; format: in vivo
# Description: Test purpose: to investigate the anti-tumor efficacy of S1 and S2 via mouse tumor treatment model.
# Test drug: S1 and S2 injections, and doxorubicin hydrochloride injection, diluted to corresponding concentrations by physiological saline when testing.
# 1. Animal: nude mice of 6-8 weeks old, all female.
# 1) MDA-MB231 cells were purchased from American type culture collection (ATCC) and identified according the specification provided by ATCC.
# 2) Production of tumor. […] Mice were randomly grouped after the diameter of the tumor reached about 0.3 cm to 0.4 cm. Then treatment began.
# as §6, with “According” for “3) Course of treatment. According”, “30 mg/kg (<1/2” for “10 μmol/kg (<1/10”, “4 mg/kg” for “3 μmol/kg”, “twice weekly” for “daily”, “three weeks.” for “8 days.”
# [8] = 10 mg/kg, single injection, 6 female BALB/C mice
# [9] = lung, day 27, i.p. daily for 8 days, S1, S2 10 μmol/kg, doxorubicin hydrochloride 3 μmol/kg
# Chain of serum albumin (P07724 25-608): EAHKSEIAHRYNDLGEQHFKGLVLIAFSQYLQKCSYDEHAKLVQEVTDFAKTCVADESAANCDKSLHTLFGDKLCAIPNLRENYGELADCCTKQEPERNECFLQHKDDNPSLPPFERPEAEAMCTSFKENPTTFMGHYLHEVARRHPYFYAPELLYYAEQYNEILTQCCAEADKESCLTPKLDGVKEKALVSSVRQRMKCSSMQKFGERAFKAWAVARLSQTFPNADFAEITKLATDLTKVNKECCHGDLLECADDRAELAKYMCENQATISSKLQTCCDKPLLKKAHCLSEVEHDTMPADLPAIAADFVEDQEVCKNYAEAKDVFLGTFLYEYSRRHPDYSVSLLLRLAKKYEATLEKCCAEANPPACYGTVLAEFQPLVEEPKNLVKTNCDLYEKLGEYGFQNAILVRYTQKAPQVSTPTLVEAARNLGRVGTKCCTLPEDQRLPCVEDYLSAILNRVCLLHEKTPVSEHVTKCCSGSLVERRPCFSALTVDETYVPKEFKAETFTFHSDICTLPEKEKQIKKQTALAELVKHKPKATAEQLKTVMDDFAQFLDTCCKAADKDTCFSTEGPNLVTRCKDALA
structure (smiles),measurement,setting,value
COc1cccc2c1C(=O)c1c(O)c3c(c(O)c1C2=O)C[C@@](O)(C(=O)CO)C[C@@H]3O[C@@H]1C[C@H](NC(=O)[C@H](CC(C)C)NC(=O)[C@H](CC(N)=O)NC(=O)[C@H](C)NC(=O)[C@H](C)NC(=O)OC(C)(C)C)[C@H](O)[C@H](C)O1 [BOC-AANL-DOX],Metabolic half-life in the mice blood,[1],0.7 h
"COc1cccc2c1C(=O)c1c(O)c3c(c(O)c1C2=O)C[C@@](O)(C(=O)CO)C[C@@H]3O[C@H]1C[C@H](NC(=O)[C@H](CC(C)C)NC(=O)[C@H](CC(N)=O)NC(=O)[C@H](C)NC(=O)[C@H](C)NC(=O)CCC(=O)O)[C@H](O)[C@H](C)O1 [Succinyl-AANL-DOX, reference compound] (Suc-AANL-{Doxorubicin(3'-N)})",Binding to cathepsin,"[2]; cathepsin absorbed on 96-well plate, blocked with BSA",did not bind to absorbed cathepsin
same,Binding to serum albumin / plasma protein in blood,[3],did not bind to serum albumin in the blood plasma
same,Metabolic half-life in the mice blood,[1],37 h
"COc1cccc2c1C(=O)c1c(O)c3c(c(O)c1C2=O)C[C@@](O)(C(=O)CO)C[C@@H]3O[C@H]1C[C@H](N)[C@H](O)[C@H](C)O1 [doxorubicin hydrochloride, reference compound]",Mortality rate (%),[4]; [8],100%
same,Number of dead animal,[4]; [8],6
same,MDA-MB231,"[4]; Table 4, toxicity by the method of Test Example 1",7 mg/kg
same,MTD at 17 days,[5],4 to 8 µmol/kg
same,Inhibitory rate on metastasis,[6]; [9],31.4%
same,Number of metastasized tumor,[6]; [9],98 ± 18
same,Metastasis-inhibitory rate,[6]; same method as Test Example 3,31.4%
same,"Inhibitory rate of tumor, 20 days","[7]; 20 days, i.p. twice weekly for three weeks, S1, S2 30 mg/kg, doxorubicin hydrochloride 4 mg/kg",7.4%
same,"Size of tumor (mm^3), 20 days","[7]; 20 days, i.p. twice weekly for three weeks, S1, S2 30 mg/kg, doxorubicin hydrochloride 4 mg/kg, nude mice",358.7 ± 39.7 mm^3
same,"Inhibitory rate of tumor, 38 days","[7]; 38 days, i.p. twice weekly for three weeks, S1, S2 30 mg/kg, doxorubicin hydrochloride 4 mg/kg",29.1%
same,"Size of tumor (mm^3), 38 days","[7]; 38 days, i.p. twice weekly for three weeks, S1, S2 30 mg/kg, doxorubicin hydrochloride 4 mg/kg, nude mice",881.2 ± 86.5 mm^3
same,Tumor-inhibitory rate (day 38),"[7]; day 38, same method as Test Example 2",29.1%
"CC(C)C[C@H](NC(=O)[C@H]1O[C@@H]1C(=O)O)C(=O)NCCCCN=C(N)N [Example E-64, E-64, reference compound]",Competitive inhibition of the binding of S1 to cathepsin,[2]; mixture of S1 and E-64,could competitively inhibit the binding of S1; also recorded: binding can be inhibited by cathepsin inhibitor E-64
